From ChEMBL document CHEMBL1138108, “Syntheses and evaluation of novel fatty acid-second-generation taxoid conjugates as promising anticancer agents” (Bioorg Med Chem Lett, 2006)
Active and inactive are the calls of the source. The rule behind the calls is not given here.

Key:
MCF7S = test: Cytotoxicity against human mammary tumor cell line MCF7-S; type: functional, cell-based
DLD-1 [1] = test: Efficacy against Pgp+ human colon tumor xenograft DLD1 in SCID mice at 240 mg/kg, iv; type: functional, organism-based; design: dose 240 mg/kg
MCF7R = test: Cytotoxicity against human mammary tumor cell line MCF7-R; type: functional, cell-based
A121 = test: Efficacy against Pgp- human ovarian tumor xenograft A121 in SCID mice at 90 mg/kg, iv
DLD-1 [2] = test: Efficacy against Pgp+ human colon tumor xenograft DLD1 in SCID mice at 75 mg/kg, iv; type: functional, organism-based; design: dose 75 mg/kg

Row | Compound | IC50 (MCF7S) [nM] | Activity (DLD-1 [1]) | IC50 (MCF7R) [nM] | Activity (A121) | Activity (DLD-1 [2])
1 | CCC(=O)O[C@H]1C(=O)[C@@]2(C)[C@H]([C@H](OC(=O)c3ccccc3)[C@]3(O)C[C@H](OC(=O)[C@H](O)[C@H](C=C(C)C)NC(=O)OC(C)(C)C)C(C)=C1C3(C)C)[C@]1(OC(C)=O)CO[C@@H]1C[C@@H]2O | 0.18 | Active | 4 | – | –
2 | CC/C=C\C/C=C\C/C=C\C/C=C\C/C=C\C/C=C/CCC(=O)O[C@@H](C(=O)O[C@H]1C[C@@]2(O)[C@@H](OC(=O)c3ccccc3)C3[C@](C)(C(=O)[C@H](OC(C)=O)C(=C1C)C2(C)C)[C@@H](O)C[C@H]1OC[C@@]31OC(C)=O)[C@@H](NC(=O)c1ccccc1)c1ccccc1 (some centres not stated) | – | inactive | – | – | –
3 | CC/C=C\C/C=C\C/C=C\C/C=C\C/C=C\C/C=C/CCC(=O)O[C@@H](C(=O)O[C@H]1C[C@@]2(O)[C@@H](OC(=O)c3ccccc3)C3[C@](C)(C(=O)[C@H](OC(=O)N(C)C)C(=C1C)C2(C)C)[C@@H](O)C[C@H]1OC[C@@]31OC(C)=O)[C@H](C=C(C)C)NC(=O)OC(C)(C)C (some centres not stated) | – | – | – | Active | –
4 | CC(=O)O[C@H]1C(=O)[C@@]2(C)[C@H]([C@H](OC(=O)c3ccccc3)[C@]3(O)C[C@H](OC(=O)[C@H](O)[C@@H](NC(=O)c4ccccc4)c4ccccc4)C(C)=C1C3(C)C)[C@]1(OC(C)=O)CO[C@@H]1C[C@@H]2O [PACLITAXEL] | 1.7 | – | 550 | – | –
5 | CC(=O)O[C@@]12CO[C@@H]1C[C@H](O)[C@@]1(C)C(=O)[C@H](OC(=O)C3CC3)C3=C(C)[C@@H](OC(=O)[C@H](O)[C@H](C=C(C)C)NC(=O)OC(C)(C)C)C[C@@](O)([C@@H](OC(=O)c4ccccc4)[C@H]21)C3(C)C | 0.2 | Active | 3.9 | – | –
6 | COC(=O)O[C@H]1C(=O)[C@@]2(C)C([C@H](OC(=O)c3ccccc3)[C@]3(O)C[C@H](OC(=O)[C@H](O)[C@H](C=C(C)C)NC(=O)OC(C)(C)C)C(C)=C1C3(C)C)[C@]1(OC(C)=O)CO[C@@H]1C[C@@H]2O (some centres not stated) | 0.14 | – | 9.7 | – | –
7 | CC(=O)O[C@@]12CO[C@@H]1C[C@H](O)[C@@]1(C)C(=O)[C@H](OC(=O)N(C)C)C3=C(C)[C@@H](OC(=O)[C@H](O)[C@H](C=C(C)C)NC(=O)OC(C)(C)C)C[C@@](O)([C@@H](OC(=O)c4ccccc4)C12)C3(C)C (some centres not stated) | 0.13 | – | 7.4 | – | –
8 | CC(=O)O[C@@]12CO[C@@H]1C[C@H](O)[C@@]1(C)C(=O)[C@H](OC(=O)C3CC3)C3=C(C)[C@@H](OC(=O)[C@H](O)[C@H](CC(C)C)NC(=O)OC(C)(C)C)C[C@@](O)([C@@H](OC(=O)c4ccccc4)C12)C3(C)C (some centres not stated) | 0.51 | – | 7.9 | – | –
9 | CC(=O)O[C@@]12CO[C@@H]1C[C@H](O)[C@@]1(C)C(=O)[C@H](O)C3=C(C)[C@@H](OC(=O)[C@H](O)[C@@H](NC(=O)OC(C)(C)C)c4ccccc4)C[C@@](O)([C@@H](OC(=O)c4ccccc4)[C@H]21)C3(C)C [DOCETAXEL] | 1 | – | 723 | – | –
10 | CCCCC/C=C\C/C=C\CCCCCCCC(=O)O[C@@H](C(=O)O[C@H]1C[C@@]2(O)[C@@H](OC(=O)c3ccccc3)C3[C@](C)(C(=O)[C@H](OC(=O)CC)C(=C1C)C2(C)C)[C@@H](O)C[C@H]1OC[C@@]31OC(C)=O)[C@H](C=C(C)C)NC(=O)OC(C)(C)C (some centres not stated) | – | – | – | – | Active
11 | CCC(=O)O[C@H]1C(=O)[C@@]2(C)[C@H]([C@H](OC(=O)c3ccccc3)[C@]3(O)C[C@H](OC(=O)[C@H](O)[C@H](CC(C)C)NC(=O)OC(C)(C)C)C(C)=C1C3(C)C)[C@]1(OC(C)=O)CO[C@@H]1C[C@@H]2O | 0.35 | – | 5.1 | – | –
12 | CC/C=C\C/C=C\C/C=C\CCCCCCCC(=O)O[C@@H](C(=O)O[C@H]1C[C@@]2(O)[C@@H](OC(=O)c3ccccc3)C3[C@](C)(C(=O)[C@H](OC(=O)CC)C(=C1C)C2(C)C)[C@@H](O)C[C@H]1OC[C@@]31OC(C)=O)[C@H](C=C(C)C)NC(=O)OC(C)(C)C (some centres not stated) | – | – | – | – | Active
